Source: patent US9492368B2, “External preparation for skin” (HAYASHIBARA CO., LTD., priority 2011, dated 2016)
Read-outs that look alike come from different tables or passages of the source. Marks after values point to notes of the source that are not given here.

What was measured:
[1] = molecular target: T1, adenosine deaminase (ADA) (Homo sapiens, UniProt P00813); conditions: 0.5 mM, pH 7.5
T1 sequence (P00813 1-363): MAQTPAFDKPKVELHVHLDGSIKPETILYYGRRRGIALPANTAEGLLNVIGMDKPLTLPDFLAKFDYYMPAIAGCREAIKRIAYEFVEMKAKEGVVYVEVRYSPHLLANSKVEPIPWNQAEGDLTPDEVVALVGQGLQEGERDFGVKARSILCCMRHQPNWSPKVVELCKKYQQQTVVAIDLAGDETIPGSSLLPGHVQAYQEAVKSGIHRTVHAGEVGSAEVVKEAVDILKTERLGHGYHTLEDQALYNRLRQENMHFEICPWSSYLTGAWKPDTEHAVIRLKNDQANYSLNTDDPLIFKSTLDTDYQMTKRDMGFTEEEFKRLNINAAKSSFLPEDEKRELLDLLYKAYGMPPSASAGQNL
Method: Adenosine has been confirmed to be promptly hydrolyzed into inosine and hypoxanthine by adenosine deaminase (ADA) intrinsically present in living bodies. To examine the possibility of sustainably exerting effects by glucosyladenosines as adenosine glycosides, a test for confirming whether 5′- and 3′-glucosyladenosines are hydrolyzed in living bodies was conducted using a cell lysate of a normal human fetal fibroblast as a source for an adenosine metabolism-relatedenzyme. “NHDF cells”, a normal human fetal fibroblast, commercialized by Kurabo Industries, Osaka, Japan (called “NHDF cells”, hereinafter), which had been diluted with “Dulbecco's Modified Eagle Medium “Nissui” (abbreviated as […], hereinafter), a product name of a Dulbecco's Medium Essential Medium, commercialized by Nissui Pharmaceutical Co., Ltd., Tokyo, Japan, containing 10 v/v % fetal calf serum […] (called “FCS”, hereinafter) was inoculated to 150 cm^2 culture flasks (commercialized by Corning, N.Y., USA) in a cell amount of 1.5×10^6 cells/20 ml/flask, and cultured for four days. After removing each culture supernatant, the resulting cells were treated with “Trypsin-EDTA”, a product name of 0.05% by mass of trypsin/EDTA solution, commercialized by Gibco, NY., USA, followed by collecting the cell suspensions from each flask. […] CELL DISROPTOR 185” thrice (30 sec×twice for each) for cell disruption, centrifuged at 15,000 rpm for five minutes to collect supernatants as a cell lysate. 0.9 ml of the cell lysate and 0.1 ml of phosphate buffered saline (PBS), which had been prepared by dissolving either the 5′-glucosyladenosine that had had been prepared in Experiment 1-2 or the 3′-glucosyladenosine that had had been prepared in Experiment 2 to give a concentration of 5 mM, were mixed, stirred, and allowed to react at 37° C. Reaction solutions at reaction times 0, 1, 7 and 24 hours after initiating the reaction were collected, treated with the same method as in Experiment 3, and quantified for adenosine and glucosyladenosines by an HPLC method. Relative values for concentrations of these compounds at respective reaction times were calculated when the concentration at the reaction initiation for each compound was regarded as 100%, and they are shown in Table 3 as residual percentages of adenosine or glucosyladenosines.

[2] = system: profilaggrin; assay: Differentiation of keratinocytes: profilaggrin protein expression in NHEK cells by western blotting; assay type: cell-based, human; conditions: eight days, relative to no addition = 1
Description: For the anti-wrinkle action of glucosyladenosines, the effect of glucosyladenosines on keratinocytes in the skin was examined as follows using normal human epidermal keratinocytes commonly used for evaluating accelerators for differentiating keratinocytes in the skin. Using normal human epidermal keratinocytes (derived from human newborn and commercialized by Kurabo Industries Ltd., Okayama, Japan, and abbreviated as “NHEK cells”, hereinafter), the effects of glucosyladenosines on the differentiation of keratinocytes was evaluated by comparing the expression level of profilaggrin, as a marker protein of cells in the granular layer, which is specifically expressed in the cells when keratinocytes differentiate into the cells from those in the basal lamina and which is determined by the western blotting method using an antibody specific to the marker protein. In this experiment, the increment of profilaggrin means that cells in the granular layer have been increased as a result of accelerating the differentiation of keratinocytes in the basal lamina.
NHEK Cells, which had been suspended in EpiLife medium, commercialized by Caskade Biologics Inc., Oregon, USA, containing EDGS (EpiLife Defined Growth Supplement) (abbreviated as “EpiLife medium containing EDGS”, hereinafter), were inoculated to “FALCON MULTI-WELL™ 6WELL”, 6-well plate, commercialized by Becton, Dickinson and Co., NJ, USA, which had been coated with “Cellmatorix Type IV”, a product name of collagen, commercialized by Nitta Gelatin Inc., Osaka, Japan, in a cell amount of 5×10^5 cells/1.5 ml/well; and cultured at 37° C. for two days under a 5 v/v % CO2 condition. […] As control 1, adenosine was diluted with EpiLife medium to give a final concentration of 0.1 μM, 1 μM or 10 μM, and the dilution was added to the plates in a volume of 1.5 ml/well. As control 2, EpiLife medium was only added to plates in a volume of 1.5 ml/well. Thereafter, the cells were incubated for eight days while replacing the medium in each well with a fresh preparation of the same medium as added initially every other day. The culture medium in each well was removed by aspiration, and the resulting cells were washed by adding PBS, followed by adding an extraction buffer to the cells in a volume of 100 μl/well, detaching the cells from each well with a cell scraper, and collecting the cells in “EPPENDORF TUBE”, a product name of a 1.5 ml microtube, commercialized by Eppendorf AG, Hamburg, Germany. The collected cells were mixed by a vortex mixer, suspended, allowed to stand over ice for 30 min, and centrifuged at 15,000×g for 10 min at 4° C. to collect a supernatant for use as a sample for analysis. 20 mM Tris-HCl buffer (pH 8.0) containing 2% by mass of sodium dodecyl sulfate (SDS), 1 mM edetic acid, 20 μM phenylmethylsulfonyl fluoride (PMSF), 20 μM leupeptin, and 0.1 μM aprotinin was used as an extraction buffer.
Twelve microliters of the above sample for analysis was added to eight micriloters of 2.5 w/v % SDS aqueous solution containing 5 v/v % dithiothreitol (DTT), and the mixture was in usual manner subjected to SDS-polyacrylamide gel electrophoresis after charged on an SDS-polyacrylamide gel in an amount of 20 μg protein per lane. After completing the electrophoresis, proteins contained in the gel were in usual manner transferred to a nitrocellulose membrane, which was then soaked in “BlockAce”, a product name of a blocking solution commercialized by Dainippon Sumitomo Pharma Co., Ltd., Osaka, Japan, to inhibit non-specific reactions. […]

## Nc1ncnc2c1ncn2[C@@H]1O[C@H](CO)[C@@H](O[C@H]2O[C@H](CO)[C@@H](O)[C@H](O)[C@H]2O)[C@H]1O [3′-Glucosyladenosine, α-D-glucopyranosyl-(1→3′)-adenosine]
[1]; 0 h
  Remaining percentage: 100%
[1]; 1 h
  Remaining percentage: 95%
[1]; 7 h
  Remaining percentage: 86%
[1]; 24 h
  Remaining percentage: 17%
[2]; 0.1 μM in medium
  Expression level of profilaggrin: 1.6*
[2]; 1 μM in medium
  Expression level of profilaggrin: 2.4**
[2]; 10 μM in medium
  Expression level of profilaggrin: 2.0**

## Nc1ncnc2c1ncn2[C@@H]1O[C@H](CO[C@H]2O[C@H](CO)[C@@H](O)[C@H](O)[C@H]2O)[C@@H](O)[C@H]1O [5′-Glucosyladenosine, α-D-glucopyranosyl-(1→5′)-adenosine]
[1]; 0 h
  Remaining percentage: 100%
[1]; 1 h
  Remaining percentage: 101%
[1]; 7 h
  Remaining percentage: 100%
[1]; 24 h
  Remaining percentage: 96%
[2]; 0.1 μM in medium
  Expression level of profilaggrin: 2.1*
[2]; 1 μM in medium
  Expression level of profilaggrin: 3.8**
[2]; 10 μM in medium
  Expression level of profilaggrin: 2.8**

## Nc1ncnc2c1ncn2[C@@H]1O[C@H](CO)[C@@H](O)[C@H]1O [Adenosine, reference compound]
[1]; 0 h
  Remaining percentage: 100%
[1]; 1 h
  Remaining percentage: 53%
[1]; 7 h
  Remaining percentage: 0%
[1]; 24 h
  Remaining percentage: 0%
[2]; 0.1 μM in medium
  Expression level of profilaggrin: 1.1
[2]; 1 μM in medium
  Expression level of profilaggrin: 1.2
[2]; 10 μM in medium
  Expression level of profilaggrin: 0.9
